Laboratory results published in patent US8278312B2, “Imidazo 1,2-a pyrimidine derivatives for the treatment of diseases such as diabetes” (Merck Patent Gesellschaft mit Beschränkter Haftung, priority 2007, dated 2012).

Experiments:
[1] = molecular target: T1, SGLT2 (Homo sapiens, UniProt P31639); assay: 14C-AMG uptake in BHK cells transfected with SGLT2 (96-well cell-based assay); settings: 2 mM AMG, 37° C., 90 min
T1 construct: expressed in transfected cells
T1 sequence (P31639 1-672): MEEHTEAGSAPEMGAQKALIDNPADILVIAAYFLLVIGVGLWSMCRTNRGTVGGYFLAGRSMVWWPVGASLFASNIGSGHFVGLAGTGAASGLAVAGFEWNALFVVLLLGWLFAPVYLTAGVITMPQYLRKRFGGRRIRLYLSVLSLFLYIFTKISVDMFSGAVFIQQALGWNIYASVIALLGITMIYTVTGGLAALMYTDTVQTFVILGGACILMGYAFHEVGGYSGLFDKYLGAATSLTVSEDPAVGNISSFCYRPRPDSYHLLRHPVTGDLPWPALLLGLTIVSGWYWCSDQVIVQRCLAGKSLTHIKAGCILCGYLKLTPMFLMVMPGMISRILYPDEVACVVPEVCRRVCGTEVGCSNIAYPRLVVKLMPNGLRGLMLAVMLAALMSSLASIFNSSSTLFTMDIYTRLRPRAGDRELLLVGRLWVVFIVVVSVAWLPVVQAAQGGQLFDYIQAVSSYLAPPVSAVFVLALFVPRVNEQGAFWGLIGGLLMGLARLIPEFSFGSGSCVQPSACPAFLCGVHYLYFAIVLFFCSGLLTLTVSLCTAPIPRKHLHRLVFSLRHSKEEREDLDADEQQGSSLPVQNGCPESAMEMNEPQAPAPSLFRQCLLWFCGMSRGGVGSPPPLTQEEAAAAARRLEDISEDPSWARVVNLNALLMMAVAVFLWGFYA
Source text: (§1) The compounds can be tested for their SGLT inhibition properties by means of BHK cells expressing SGLT1 and SGLT2. The production of the cells and the testing can be carried out as described below.
To construct the SGLT2 expression vector (KL224), the SLC5A2 gene (homologous to NM_003041) was amplified from a cDNA library using standard PCR technology and cloned over NheI/XhoI sites into PCI-neo expression vector (Promega) containing neomycin as a selection marker. In this vector, transcription uses the enhancer/promoter of human cytomegalovirus and the SV40 polyadenylation signal.
(§2) The final vector KL224 together with an additional vector containing a dihydrofolate reductase gene as a selection marker was introduced into cells. Transfection into BHK21 cells (ATCC CCL-10), cultivated in DMEM medium (GIBCO/BRL), supplemented with 10% foetal calf serum (FCS) and 20 mM glutamine, was carried out using calcium phosphate transfections according to Graham, F. L. and van der Ebb, A. J. (1973), Virology 52: 456 with 5-20 μg of uncut plasmids for 10^7 cells. Stable transfectants were selected in medium containing 1 mg/ml of G418 (GIBCO/BRL) and 20-5000 nM methotrexate as final concentration, where only cells which expressed the neomycin gene and overexpressed the dhfr gene were able to grow. After growth for 2-3 weeks, the cells were cloned (0.5 cells/well) and the clones were investigated for SGLT expression in radioactivity uptake tests. […]
(§3) A 96-well cell-based assay was developed and adapted to HTS requirements:
(§4) BHK cells (transfected with SGLT1 or SGLT2) were seeded into 96-well microtitre plates (Cultureplates, Perkin Elmer). After at least 24 h, medium was removed, and the cell layer was washed with assay buffer (140 mM NaCl, 2 mM KCl, 1 mM CaCl2, 1 mM MgCl2, 10 mM HEPES, 5 mM Tris, adjusted to pH 7.4 using 1 M KOH). After addition of 40 μl of assay buffer, 50 μl of AMG (50 μM for SGLT1 and 2 mM for SGLT2) in the presence or absence of compounds, the cells were incubated in a total volume of 100 μl at 37° C. for 90 min. Supernatant was removed by suction and discarded. Cells were washed and lysed by addition of 50 μl of water. After 10 min at room temperature, 200 μl of Micrsoscint 40 (Perkin Elmer) were added. The radioactivity was counted in a Topcount microplate scintillation counter (Perkin Elmer). The non-specific uptake was determined in sodium-free assay buffer (266 mM sucrose, 2 mM KCl, 1 mM CaCl2, 1 mM MgCl2, 10 mM HEPES, 5 mM Tris, adjusted to pH 7.4 using 1 M KOH).

[2] = molecular target: T2, SGLT1 (Homo sapiens, UniProt P13866); assay: 14C-AMG uptake in BHK cells transfected with SGLT1 (96-well cell-based assay); settings: 50 μM AMG, 37° C., 90 min
T2 construct: expressed in transfected cells
T2 sequence (P13866 1-664): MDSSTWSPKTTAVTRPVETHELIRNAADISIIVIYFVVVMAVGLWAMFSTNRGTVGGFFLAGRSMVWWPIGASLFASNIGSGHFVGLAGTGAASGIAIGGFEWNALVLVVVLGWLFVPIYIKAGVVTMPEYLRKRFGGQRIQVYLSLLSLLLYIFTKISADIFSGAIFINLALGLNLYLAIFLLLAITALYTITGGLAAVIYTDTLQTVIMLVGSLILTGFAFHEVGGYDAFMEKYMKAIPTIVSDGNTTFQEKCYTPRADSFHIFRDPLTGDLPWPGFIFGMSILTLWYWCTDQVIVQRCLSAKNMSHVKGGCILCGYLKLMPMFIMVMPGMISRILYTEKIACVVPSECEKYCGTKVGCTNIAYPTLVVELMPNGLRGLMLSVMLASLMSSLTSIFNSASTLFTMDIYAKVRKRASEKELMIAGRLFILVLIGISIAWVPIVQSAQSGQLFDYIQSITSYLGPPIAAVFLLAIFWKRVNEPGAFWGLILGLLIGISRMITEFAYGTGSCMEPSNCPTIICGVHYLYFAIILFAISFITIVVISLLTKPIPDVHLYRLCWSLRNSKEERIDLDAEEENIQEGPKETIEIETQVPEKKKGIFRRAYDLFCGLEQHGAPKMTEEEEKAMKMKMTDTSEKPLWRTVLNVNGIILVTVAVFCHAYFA
Source text: as §1
To construct the SGLT1 expression vector (KL225), the SLC5A1 gene (homologous to NM_000343) was amplified from a cDNA library using standard PCR technology and cloned over NheI/XhoI sites into the pcDNA3.1 expression vector (Invitrogen) containing neomycin as a selection marker. In this vector, transcription uses the enhancer/promoter of human cytomegalovirus.
as §2, with “KL225” for “KL224”
as §3, §4

Row | SMILES | IC50 [1] | IC50 [2]
1 | Cc1cccc(C)c1Nc1c(-c2ccccc2OCC(N)=O)nc2ncccn12 [Compound A1, 2-{2-[3-(2,6-Dimethylphenylamino)-imidazo[1,2-a]pyrimidin-2-yl]phenoxy}-acetamide] | 1000 to 10000 nM | > 10000 nM
2 | Cc1cc(C)n2c(Nc3c(C)cccc3C)c(-c3ccccc3OCC(N)=O)nc2n1 [Compound A2] | > 10000 nM | > 10000 nM
3 | CCc1cccc(OCC(N)=O)c1-c1nc2ncccn2c1Nc1c(Cl)cccc1Cl [Compound A7] | 10 to 1000 nM | 1000 to 10000 nM
4 | CCc1cccc(OCC(N)=O)c1-c1nc2ncccn2c1Nc1c(C)cccc1C [Compound A8, 2-{2-[3-(2,6-dimethylphenylamino)imidazo[1,2-a]-pyrimidin-2-yl]-3-ethylphenoxy}acetamide] | 1000 to 10000 nM | 1000 to 10000 nM
5 | CCc1cc(OC)cc(OCC(N)=O)c1-c1nc2ncccn2c1Nc1c(C)cccc1C [Compound A9] | 10 to 1000 nM | > 10000 nM
6 | COc1cc(C)c(-c2nc3ncccn3c2Nc2c(C)cccc2C)c(OCC(N)=O)c1 [Compound A10, 2-{2-[3-(2,6-Dimethylphenylamino)-imidazo[1,2-a]pyrimidin-2-yl]-5-methoxy-3-methylphenoxy}acetamide] | 10 to 1000 nM | > 10000 nM
7 | CCc1cc(OC)cc(OCC(N)=O)c1-c1nc2ncccn2c1Nc1c(Cl)cccc1Cl [Compound A12, 2-{2-[3-(2,6-Dichlorophenylamino)-imidazo[1,2-a]pyrimidin-2-yl]-3-ethyl-5-methoxyphenoxy}acetamide] | 10 to 1000 nM | > 10000 nM
8 | CNc1nnc(-c2ccccc2-c2nc3ncccn3c2Nc2c(Cl)cc(F)cc2Cl)o1 [Compound A13, (2,6-Dichloro-4-fluorophenyl)-{2-[2-(5-methylamino-1,3,4-oxadiazol-2-yl)-phenyl]imidazo[1,2-a]pyrimidin-3-yl}-amine] | 10 to 1000 nM | 1000 to 10000 nM
9 | CCNc1nnc(-c2ccccc2-c2nc3ncccn3c2Nc2c(Cl)cccc2Cl)o1 [Compound A15, (2,6-Dichlorophenyl)-{2-[2-(5-ethylamino-1,3,4-oxadiazol-2-yl)phenyl]imidazo-[1,2-a]pyrimidin-3-yl}amine] | 10 to 1000 nM | 1000 to 10000 nM
10 | COc1cc(C(N)=O)c(-c2nc3ncccn3c2Nc2c(Cl)cccc2Cl)c(OC)c1OC [Compound A17, 2-[3-(2,6-dichlorophenylamino)imidazo[1,2-a]pyrimidin-2-yl]-3,5,4-trimethoxybenzamide] | 1000 to 10000 nM | > 10000 nM
11 | COc1cc(OC)c(-c2nc3ncccn3c2Nc2c(Cl)cccc2Cl)c(C(=O)NN)c1 [Compound A18, 2-[3-(2,6-dichlorophenylamino)imidazo[1,2-a]pyrimidin-2-yl]-3,5-dimethoxybenzohydrazide] | 1000 to 10000 nM | > 10000 nM
12 | CNc1nnc(-c2cccc(Cl)c2-c2nc3ncccn3c2Nc2c(C)cccc2C)o1 [Compound A19, {2-[2-Chloro-6-(5-methylamino-1,3,4-oxadiazol-2-yl)phenyl]imidazo[1,2-a]-pyrimidin-3-yl}-(2,6-dimethylphenyl)amine] | 10 to 1000 nM | 1000 to 10000 nM
13 | COC(=O)c1cccc(Cl)c1-c1nc2ncccn2c1Nc1c(C)cccc1C [Compound A20, Methyl 3-chloro-2-[3-(2,6-dimethyl-phenylamino)imidazo[1,2-a]pyrimidin-2-yl)benzoate] | 10 to 1000 nM | > 10000 nM

Continued, values first:

Row | IC50 [1] | IC50 [2] | SMILES
14 | 10 to 1000 nM | 10 to 1000 nM | CNc1nnc(-c2cc(OC)cc(OC)c2-c2nc3ncccn3c2Nc2c(Cl)cccc2Cl)o1 [Compound A3, (2,6-dichlorophenyl)-{2-[2,4-dimethoxy-6-(5-methylamino-1,3,4-oxadiazol-2-yl)phenyl]imidazo[1,2-a]pyrimidin-3-yl}amine]
15 | 10 to 1000 nM | 10 to 1000 nM | CNc1nnc(-c2cc(OC)cc(OC)c2-c2nc3ncccn3c2Nc2c(Cl)cc(F)cc2Cl)o1 [Compound A4, (2,6-Dichloro-4-fluorophenyl)-{2-[2,4-dimethoxy-6-(5-methylamino-1,3,4-oxadiazol-2-yl)phenyl]imidazo[1,2-a]-pyrimidin-3-yl}amine]
16 | 10 to 1000 nM | 1000 to 10000 nM | CCNc1nnc(-c2cc(OC)cc(OC)c2-c2nc3ncccn3c2Nc2c(Cl)cccc2Cl)o1 [Compound A5, (2,6-Dichlorophenyl)-{2-[2-(5-ethylamino-1,3,4-oxadiazol-2-yl)-4,6-dimethoxy-phenyl]imidazo[1,2-a]pyrimidin-3-yl}-amine]
17 | 1000 to 10000 nM | > 10000 nM | COc1cc(OC)c(-c2nc3ncccn3c2Nc2c(Cl)cccc2Cl)c(-c2n[nH]c(=O)o2)c1 [Compound A6, 5-{2-[3-(2,6-dichlorophenylamino)imidazo[1,2-a]-pyrimidin-2-yl]-3,5-dimethoxyphenyl}-3H-1,3,4-oxadiazol-2-one]
18 | 10 to 1000 nM | 1000 to 10000 nM | CNc1nnc(-c2cc(OC)cc(OC)c2-c2nc3ncccn3c2Nc2c(C)cccc2C)o1 [Compound A11, {2-[2,4-Dimethoxy-6-(5-methylamino-1,3,4-oxadiazol-2-yl)phenyl]imidazo-[1,2-a]pyrimidin-3-yl}-(2,6-dimethyl-phenyl)amine]
19 | 10 to 1000 nM | 1000 to 10000 nM | CNc1nnc(-c2cc(Cl)cc(Cl)c2-c2nc3ncccn3c2Nc2c(C)cccc2C)o1 [Compound A16, {2-[2,4-Dichloro-6-(5-methylamino-1,3,4-oxadiazol-2-yl)phenyl]imidazo[1,2-a]-pyrimidin-3-yl}-(2,6-dimethylphenyl)amine]
